Legend:
[1] = molecular target: T1, testosterone 5α-reductase (S-9, rat liver homogenate) (Rattus norvegicus, UniProt P24008); assay: Testosterone 5α-reductase inhibitory action test; type: biochemical; conditions: rat liver S-9, read-out: Testosterone 5 α-reductase inhibition rate; for inhibition at 2000 µM: 2000 μmol/L; for inhibition at 8000 µM: 8000 μmol/L
T1 construct: tissue Oriental Yeast Co., Ltd. S-9; host or cells: rat liver homogenate (S-9 fraction)
T1 sequence (P24008 1-259): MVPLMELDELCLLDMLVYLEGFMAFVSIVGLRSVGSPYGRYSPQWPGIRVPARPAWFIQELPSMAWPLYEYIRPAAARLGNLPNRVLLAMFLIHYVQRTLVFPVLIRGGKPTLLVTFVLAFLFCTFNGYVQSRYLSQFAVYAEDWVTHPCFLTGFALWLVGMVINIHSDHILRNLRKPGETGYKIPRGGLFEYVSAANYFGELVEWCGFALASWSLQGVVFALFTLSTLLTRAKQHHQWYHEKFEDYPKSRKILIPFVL
Experimental: In a V-bottom test tube with a lid, 20 μL of a 4.2 mg/mL testosterone (available from FUJIFILM Wako Pure Chemical Corporation) solution prepared with propylene glycol and 825 μL of 5 mmol/L Tris-HCl (pH 7.13) buffer solution containing 1 mg/mL NADPH were mixed.
Furthermore, 80 μL of each of test sample solutions (Samples 1 to 3, see Table 24 below for final concentrations) prepared with 80% ethanol and 75 μL of S-9 (available from Oriental Yeast Co., Ltd., rat liver homogenate) were added, mixed, and incubated at 37° C. for 60 minutes. After that, 1 mL of methylene chloride was added to stop the reaction. This was centrifuged (1600×g, 10 minutes), the methylene chloride layer was separated, and the separated methylene chloride layer was subjected to gas chromatography analysis under the following conditions to determine the concentrations of 3α-androstanediol, 5α-dihydrotestosterone (5α-DHT), and testosterone. As a control, the same process was performed using the same amount (80 μL) of the sample solvent in place of the test sample solution, and the control was subjected to gas chromatography analysis.
• Device used: Shimadzu GC-2010 (available from Shimadzu Corporation) • Column: DB-1701 (inner diameter: 0.53 mm, length: 30 m, film thickness: 1.0 μm) (available from J&W Scientific) • Column temperature: 240° C. • Inlet temperature: 300° C. • Detector: FID • Sample injection amount: 1 μL • Split ratio: 1:2 • Carrier gas: Nitrogen gas • Carrier gas flow rate: 12 mL/min
Quantitative determination of the concentrations of 3α-androstanediol, 5α-DHT, and testosterone was performed by the following method.
Standard products of 3α-androstanediol, 5α-DHT, and testosterone were each dissolved in ethanol, and the solutions were subjected to gas chromatography analysis. From the concentrations (μg/mL) and peak areas of these compounds, the correspondence relationship between the peak area and the concentration of each compound was preliminarily obtained. Then, the concentration per peak area of each of 3α-androstanediol, 5α-DHT, and testosterone after the reaction between testosterone and S-9 was obtained based on the following equation (1) using the correspondence relationship which was preliminarily obtained.
Terms in the equation represent the following respective ones. • A: Concentration of 3α-androstanediol, 5α-DHT, or testosterone • B: Peak area of 3α-androstanediol, 5α-DHT, or testosterone • C: Concentration of standard product • D: Peak area of standard product
Using the compound concentration calculated based on the equation (1), the conversion ratio (concentration ratio between the concentration of 3α-androstanediol and 5α-DHT produced by reduction of testosterone due to testosterone 5α-reductase and the initial concentration of testosterone) was calculated based on the following equation (2).
Terms in the equation represent the following respective ones. • E: Concentration of 3α-androstanediol (μg/mL) • F: Concentration of 5α-DHT (μg/mL) • G: Concentration of testosterone (μg/mL)
Using the conversion ratio calculated based on the equation (2), the testosterone 5α-reductase inhibition rate (%) was calculated based on the following equation (3).
Terms in the equation represent the following respective ones. • H: Conversion ratio with test sample addition • I: Conversion ratio without sample addition

DPP IV (rhCD26) = molecular target: T2, DPP IV (rhCD26) (Homo sapiens, UniProt P27487); assay: DPP IV activity inhibitory action test; type: biochemical; conditions: read-out: DPP IV activity inhibition rate; for inhibition at 2500 µM: 2500 μmol/L; for inhibition at 10000 µM: 10000 μmol/L
T2 construct: purchased R&D Systems
Experimental: In a 96-well plate, 25 μL of each of test samples (Samples 1 to 3, see Table 3 below for final concentrations) prepared with 25 mM Tris-HCl buffer solution (pH 8.0) and 25 μL of 0.4 μg/mL DPP IV (available from R&D Systems, rhCD26) solution prepared with the above buffer solution were mixed and preincubated at 37° C. for 5 minutes. After that, 50 μL of 0.5 mM Gly-Pro-p-NA-Tos (available from PEPTIDE […], INC.) prepared with the above buffer solution was added, and the mixture was reacted at 37° C. for 90 minutes. After the reaction was completed, the absorbance at a wavelength of 415 nm was measured. From the obtained results, the DPP IV activity inhibition rate (%) was calculated using the following equation.
Terms in the equation represent the following respective ones. • A: Absorbance at wavelength 415 nm without sample addition and with enzyme addition • B: Absorbance at wavelength 415 nm without sample addition and without enzyme addition • C: Absorbance at wavelength 415 nm with test sample addition and with enzyme addition • D: Absorbance at wavelength 415 nm with test sample addition and without enzyme addition

T2 sequence (P27487 whole entry): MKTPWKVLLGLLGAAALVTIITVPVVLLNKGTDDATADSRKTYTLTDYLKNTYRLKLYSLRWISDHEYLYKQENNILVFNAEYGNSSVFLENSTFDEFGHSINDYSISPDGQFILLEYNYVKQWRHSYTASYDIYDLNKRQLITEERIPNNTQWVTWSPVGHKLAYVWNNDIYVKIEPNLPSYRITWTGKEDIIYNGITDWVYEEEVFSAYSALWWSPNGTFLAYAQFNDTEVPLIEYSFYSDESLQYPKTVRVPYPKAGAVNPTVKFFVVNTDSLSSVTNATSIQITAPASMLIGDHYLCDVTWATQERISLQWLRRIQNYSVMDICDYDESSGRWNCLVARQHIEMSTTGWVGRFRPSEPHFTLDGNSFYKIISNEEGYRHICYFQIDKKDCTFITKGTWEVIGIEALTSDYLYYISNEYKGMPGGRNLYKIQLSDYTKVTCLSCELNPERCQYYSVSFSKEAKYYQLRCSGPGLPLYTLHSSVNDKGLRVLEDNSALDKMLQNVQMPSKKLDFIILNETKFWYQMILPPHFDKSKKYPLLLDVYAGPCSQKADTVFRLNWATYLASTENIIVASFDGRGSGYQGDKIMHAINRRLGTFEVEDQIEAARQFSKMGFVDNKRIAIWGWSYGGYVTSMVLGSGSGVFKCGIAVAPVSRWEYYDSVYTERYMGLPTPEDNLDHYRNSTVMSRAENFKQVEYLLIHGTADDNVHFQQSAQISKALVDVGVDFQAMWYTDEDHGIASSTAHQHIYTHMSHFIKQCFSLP

Compound | inhibition at 2000 µM [1] [%] | inhibition at 8000 µM [1] [%] | inhibition at 625 µM (DPP IV (rhCD26); 625 μmol/L) [%] | inhibition at 2500 µM (DPP IV (rhCD26)) [%] | inhibition at 10000 µM (DPP IV (rhCD26)) [%]
O=C(O)CCc1ccc(O)c(O)c1 [Sample 1, 3,4-Dihydroxyhydrocinnamic acid] | 34.3 | 100 | 7.2 | 17.6 | 97.1
O=C(O)CCc1ccc(O)cc1 [Sample 2, 3-(4-Hydroxyphenyl)propionic acid] | 71 | 100 |  |  | 96.9
O=C(O)CCc1ccccc1 [Sample 3, 3-phenylpropionic acid] | 76.4 | 100 |  | 4.1 | 99.8

Reference: patent US20240252456A1, “ORAL COMPOSITION, SKIN COSMETIC AND HAIR COSMETIC” (MARUZEN PHARMACEUTICALS CO., LTD., priority 2021, published 2024)
